Two compounds from publication PMC7311950, “Potent Tetrahydroquinolone Eliminates Apicomplexan Parasites” (Frontiers in Cellular and Infection Microbiology, 2020) can be followed below.

Some results are limits rather than exact numbers.

Data set [1] has as its system P-glycoprotein (P-gp, MDR1/ABCB1). Kind of data set: in vitro. To be noted: dog, MDCK-MDR1. The procedure:
(§1) The effects of changing R1 as 7-Et, 7-Me, 6-CF3, or 6-Me on activity against RH strain tachyzoites, kinetic solubility, and metabolic stability were compared. Kinetic solubility and metabolic stability in human or murine liver microsomes were measured. The hERG (human Ether-à-go-go-Related) liability was also determined. The hERG gene (KCNH2) encodes a protein Kv11.1, the alpha subunit of a potassium ion channel. This channel conducts the rapid component of the delayed rectifier potassium current, IKr, which is critical for repolarization of cardiac action potentials. A reduction in hERG currents from adverse drug effects can lead to long QT interval syndromes. These syndromes are characterized by action potential prolongation, lengthening of the QT interval on surface EKG, and an increased risk for “torsade de pointes” arrhythmias and sudden death. The MDCK-MDR1 Permeability Assay was also performed. MDCK-MDR1 refers to the ability of a compound to permeate across membranes of MDCK-MDR1 (Madin Darby canine kidney [MDCK] cells with the MDR1 gene [ABCB1], the gene encoding for the efflux protein, P-glycoprotein (P-gp)) in vitro. Assessing transport in both directions (apical to basolateral and basolateral to apical) across the cell monolayers enables an efflux ratio to be determined. […] This provides a prediction of blood brain barrier (BBB) penetration potential/permeability and efflux ratio. Effect in CACO-2 (Colon Adenocarcinoma cells) as a permeability assay and on cytochrome P450 (CYP 450) were also determined. CYP enzymes catalyze oxidative biotransformation (phase 1 metabolism) of most drugs. CYP enzymes, bind to membranes in a cell (cyto) and contain a heme pigment (chrome and P) that absorbs light at a wavelength of 450 nm when exposed to carbon monoxide. Metabolism of a drug by CYP enzymes is a major source of variability in drug effect. These were measured by Chem Partners. The relative effect on HFF and parasite enzymes also were compared.
(§2) In vitro absorption, distribution, metabolism, excretion, and toxicity (ADMET) analyses of the THQ compounds were outsourced to ChemPartner Shanghai Ltd. ELQ-271 (synthesized in-house) was tested as a comparison.

A short description of data set [2]: Caco-2 permeability assay. Type of data set: in vitro ADME. To be noted: human, A-B, read-out: Caco-2 permeability PappA-B. For orientation: Passage across Caco-2 layers is used to estimate intestinal permeability.
For data set [3], the system named is P-glycoprotein (P-gp, MDR1). Description: in vitro. To be noted: dog, MDCK-MDR1. The procedure:
as §1, §2

In data set [4] the target is T1, P. falciparum bc1 complex cytochrome c reductase (Pfbc1) (Plasmodium falciparum, UniProt Q02768).
T1 construct: Parasite extract was then prepared by disruption with a sonicating probe; endogenous in cells; host or cells: P. falciparum strain 3D7 blood-stage culture, sonicated parasite extract
T1 sequence (Q02768 1-376): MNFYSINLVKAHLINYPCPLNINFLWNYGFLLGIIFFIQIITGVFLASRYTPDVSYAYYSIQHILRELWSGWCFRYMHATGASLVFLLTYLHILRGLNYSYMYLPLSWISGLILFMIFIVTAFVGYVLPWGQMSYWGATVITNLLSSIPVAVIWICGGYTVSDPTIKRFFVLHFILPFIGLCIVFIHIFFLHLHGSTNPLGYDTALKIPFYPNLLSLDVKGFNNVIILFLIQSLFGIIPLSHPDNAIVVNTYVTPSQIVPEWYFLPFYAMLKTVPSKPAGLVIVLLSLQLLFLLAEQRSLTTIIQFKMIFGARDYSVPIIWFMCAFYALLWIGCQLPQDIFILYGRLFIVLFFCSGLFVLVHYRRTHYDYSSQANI
Description: Pfbc1 native assay (cytochrome c reduction by parasite extract). Type of data set: biochemical. To be noted: atovaquone 1 μM positive control, X ± S.D., N = 4. The procedure:
P. falciparum 3D7 strain were obtained from the Liverpool School of Tropical Medicine. Protease cocktail inhibitor was obtained from Roche. Bradford protein assay dye reagent was obtained from Bio-Rad. All other reagents were obtained from Sigma-Aldrich. Decylubiquinol was produced as per Fisher et al. ([2009]). In brief, 25 mg of decylubiquinone were dissolved in 400 μL of nitrogen-saturated hexane. An equal volume of aqueous 1 M sodium dithionite was added, and the mixture vortexed until colorless. The organic phase containing the decylubiquinol was collected, the solvent was evaporated under N2 and the decylubiquinol finally dissolved in 100 μL of 96% ethanol (acidified with 10 mM HCl). Concentrations of decylubiquinol was determined spectrophotometrically on a Cary 300 Bio UV/visible spectrophotometer (Varian, UK) from absolute spectra, using ε288−−320 = 8.1 mM^−1.cm^−1. Decylubiquinol was stored at −80°C and used within 2 weeks. […]
The protocol for the preparation of parasite extract was adapted from Fisher et al. ([2009]). […] The protein concentration of the parasite extract was determined by Bradford protein assay (Bio-Rad).
P. falciparum bc1 complex cytochrome c reductase (Pfbc1) activity was measured by monitoring cytochrome c reduction at 550 vs. 542 nm using a Cary 300 Bio UV-Visible Spectrophotometer (Varian, UK), using a protocol adapted from Fisher et al. ([2009]). […]

With `Cc1[nH]c2c(c(=O)c1-c1ccc(Oc3ccc(Cl)cc3)cc1)CCCC2` [JAG50], in data set [1], the Papp was above 10 ×10⁻⁶ cm/s and the efflux ratio – broadly, a quotient of directional permeabilities that is used to spot active efflux – is below 1.5.
Consider `Cc1[nH]c2c(c(=O)c1-c1ccc(Oc3ccc(OC(F)(F)F)cc3)cc1)CCCC2` [JAG21, 2-Methyl-3-(4-(4-(Trifluoromethoxy)Phenoxy)Phenyl)-5,6,7,8-Tetrahydroquinolin-4-One], for which the Papp in data set [2] is above 10 ×10⁻⁶ cm/s. Besides, in data set [3], the Papp is above 10 ×10⁻⁶ cm/s and the efflux ratio was below 1.5. In data set [4], the inhibition (in general, how much of the control response was suppressed) at 1 µM was 86.4 ± 3.2%.
